Source: article PMC9102502, “The Influence of Selected Antipsychotic Drugs on Biochemical Aspects of Alzheimer’s Disease” (International Journal of Molecular Sciences, 2022)
Like-named read-outs stand apart in the source and are kept apart here.

How the values were obtained:
[1] = target: T1, human erythrocyte acetylcholinesterase (Homo sapiens, UniProt P22303); experiment: AChE inhibition, modified Ellman's method; type: biochemical; settings: for AChE reaction velocity: control 0.259 ± 0.013 A/min
T1 construct: solution of hemolyzed erythrocytes diluted 400-fold; from tissue; host or cells: hemolyzed erythrocytes from blood of healthy human donors
Description: (§1) The activity of both cholinesterases (AChE and BuChE) were assessed spectrophotometrically according to the Ellman’s method with some modifications by Worek et al.. This test development included experimental determination of the optimal testing conditions. For all measurements, 37 °C was used as the best temperature for enzymatic determinations in material of human origin.
(§2) The solution of plasma 200-fold diluted with 0.9% NaCl and solution of hemolyzed erythrocytes diluted 400-fold with 0.9% were incubated (37 °C, 15 min) with 5 μL DTNB (0.01 mol/L) and 10 μL tested compound at a wider range of concentration than the therapeutic range in order to assess the overall effect of the compound on human esterases (AChE and BuChE). The controls without antipsychotics, containing only DTNB and diluted plasma or diluted solution of hemolyzed erythrocytes, were prepared. […] The final volume of a sample was 500 μL. […] The maximal velocity of the reaction was determined on the basis of changes in absorbance over time.
(§3) AChE SI (selectivity index) was calculated by using the following formula: SI = IC50 of BuChE/IC50 of AChE. However, BuChE SI was defined as IC50 of AChE/IC50 of BuChE. Maximal velocity (Vmax) and the Michaelis constant (Km) were calculated with the use of linear regression—according to the Hanes–Woolf plot.

human erythrocytes [2] = experiment: Methemoglobin formation in RBC with AAPH; type: cell-based; settings: 24 h, AAPH control 78.1%
Description: The blood samples were centrifuged (3000 rpm, 10 min, 20 °C, Micro 22 R centrifuge, Hettich Zentrifugen, Tuttlingen, Germany) to separate erythrocytes from the plasma and washed three times with 0.9% saline (NaCl). […] The erythrocytes were suspended in 0.9% saline. As control of basal hemolysis, erythrocytes were incubated with 0.9% NaCl. For total hemolysis control erythrocytes were incubated with 2.0% v/v Triton X-100. Incubation with Triton X-100 and K4[Fe(CN)6] (at concentration 50 g/L) was performed to control methemoglobin (MetHb) formation. Moreover, an antioxidant control containing ascorbic acid (AA) at a concentration of 10 µg/mL was prepared, while AAPH at a concentration of 50 mmol/L was an oxidizing agent. Antipsychotics at concentrations equaling their maximum therapeutic plasma concentrations (TPCmax), as well as 5-fold higher (5 × TPCmax) and 5-fold lower than TPCmax (1/5 × TPCmax), and the oxidizing agent AAPH at a concentration of 50 mmol/L, were added to 2% RBC suspension. Controls and tested samples were incubated at 37 °C. […] For each measurement, 0.5 mL samples were taken from incubated Eppendorf tubes and centrifuged (3000 rpm, 10 min). […] The percentage of hemolysis was calculated with the following formula:Hemolysis (%) = (Asample/Atotal hemolysis) × 100%(1) where Asample—absorbance of the test sample; Atotal hemolysis—the absorbance of the reference sample with 2% Triton X solution, corresponding to complete hemolysis.

astrocytes = experiment: WST-1 viability under AAPH-induced oxidative stress, astrocytes; type: cell-based, human; settings: benperidol 5 and 10 μg/L, penfluridol 12.5 μg/L, pimozide 15 μg/L, promazine 25 and 50 μg/L
Description: WST-1 assay (Takara, Takara Bio Europe, Saint-Germain-en-Laye, France) was used to assess the effects of antipsychotics on the growth of HUVEC and astrocytes. The experiments were conducted as described previously. HUVEC were seeded at a density of 7500 cells, and astrocytes at 5000 cells per well on 96-well microplates and cultured for 24 h followed by treatment with compounds at ½ × TPCmax and TPCmax or pure medium as a control (v = 100 μL) for another 24 h (37 °C, 5% CO2). Subsequently, the cells were washed with culture medium (100 μL) and WST-1 reagent diluted in medium (10 μL of reagent + 90 μL of medium) was added. The plates were incubated at 37 °C in 5% CO2 for another 90 min for HUVEC and 60 min for astrocytes. The absorbance was read at 450 nm using a microplate reader (iMARK, Bio-Rad, Hercules, CA, USA). The cells viability was expressed as a percentage of the control samples which constituted 100% viability.
Moreover, the WST-1 assay was used to evaluate potential protective effects of antipsychotics on the growth of HUVEC and astrocytes under conditions of AAPH-induced oxidative stress. The experimental conditions were the same as in viability studies. AA at the final concentration of 10 μg/mL was used as an antioxidant control. After reaching the confluence, the antipsychotics were added at concentrations equaling ½ × TPCmax and TPCmax. After 1 h incubation under standard conditions, 50 μL AAPH was added to the wells containing tested compounds or AA. The AAPH concentration was chosen on the basis of preliminary experiments—17.5 mmol/L in HUVEC experiments, and 15.0 mmol/L in the case of astrocytes.

[3] = target: T2, human plasma butyrylcholinesterase (Homo sapiens, UniProt P06276); experiment: BuChE inhibition, modified Ellman's method; type: biochemical; settings: experimental data, mean ± SD, n = 6–9
T2 construct: The solution of plasma 200-fold diluted with 0.9% NaCl; from tissue; host or cells: citrated plasma from blood of healthy human donors
Description: as §1, §2, §3

human erythrocytes [4] = experiment: RBC hemolysis, compounds alone; type: cell-based; settings: 2% human erythrocyte (RBC) suspension, read-out: increase of disintegration of the erythrocyte membrane (hemolysis)
Description: (§4) The blood samples were centrifuged (3000 rpm, 10 min, 20 °C, Micro 22 R centrifuge, Hettich Zentrifugen, Tuttlingen, Germany) to separate erythrocytes from the plasma and washed three times with 0.9% saline (NaCl). […] The erythrocytes were suspended in 0.9% saline. As control of basal hemolysis, erythrocytes were incubated with 0.9% NaCl. For total hemolysis control erythrocytes were incubated with 2.0% v/v Triton X-100. Incubation with Triton X-100 and K4[Fe(CN)6] (at concentration 50 g/L) was performed to control methemoglobin (MetHb) formation. Moreover, an antioxidant control containing ascorbic acid (AA) at a concentration of 10 µg/mL was prepared, while AAPH at a concentration of 50 mmol/L was an oxidizing agent. Antipsychotics at concentrations equaling their maximum therapeutic plasma concentrations (TPCmax), as well as 5-fold higher (5 × TPCmax) and 5-fold lower than TPCmax (1/5 × TPCmax), and the oxidizing agent AAPH at a concentration of 50 mmol/L, were added to 2% RBC suspension. Controls and tested samples were incubated at 37 °C. […] The percentage of hemolysis was calculated with the following formula:Hemolysis (%) = (Asample/Atotal hemolysis) × 100%(1) where Asample—absorbance of the test sample; Atotal hemolysis—the absorbance of the reference sample with 2% Triton X solution, corresponding to complete hemolysis.

[5] = target: T3, recombinant human β-amyloid (1–42) (Homo sapiens, UniProt P05067); experiment: Beta-amyloid aggregation, Thioflavin T fluorescence; type: biochemical; settings: 24 and 48 h; both tested concentrations
T3 construct: recombinant human β-amyloid (1–42; ultrapure); purchased Sigma-Aldrich (St. Louis, MO, USA)
Description: Aβ42 peptide was dissolved in DMSO and left to hydrate for a few minutes. The solution was centrifuged at 10,000 rpm for 5 min at 4 °C to separate any precipitated material. The solution at a concentration of 220 μmol/L was stored in small aliquots at a temperature of −30 °C and before each experiment it was restored at 37 °C for 15 min. Test samples containing Aβ42 solution at the final concentration of 20 μmol/L was incubated with antipsychotics at concentrations equaling their TPC and 1/2 × TPC (v = 10 µL). The final volume of the test samples was 100 μL. The positive control constituted a sample of Aβ42 peptide, whereas the negative control contained tannic acid at the final concentrations of 0.1 µmol/L and 10 µmol/L. The fibrillation reaction was set up by addition of thioflavin ThT dye at a concentration of 5 µmol/L. The fluorescence intensity was measured at room temperature with Ex/Em = 440 nm/484 nm (Synergy H1; BioTek, Winooski, VT, USA). The measurements of fluorescence intensity expressed as relative fluorescence units (RFU) were taken at 10, 30, 60 and 90 min and then after 24 and 48 h. The fluorescence intensity measured for control equaled 100% of Aβ aggregation and it was used to estimate the inhibitory properties of the tested antipsychotics.

human erythrocytes [6] = experiment: Methemoglobin formation in RBC, compounds alone; type: cell-based; settings: 250 μg/L
Description: as §4

BuChE = BuChE (Homo sapiens, UniProt P06276); experiment: Kinetic parameters of enzymatic reaction (Hanes–Woolf), BuChE; type: biochemical; set-up: The solution of plasma 200-fold diluted with 0.9% NaCl; from tissue; host or cells: citrated plasma from blood of healthy human donors
Description: Kinetic parameters were obtained on the basis of three individual experiments carried out on different biological materials. For this purpose, various concentrations of substrates (ATC and BTC) were used in experiments. The type of inhibition and kinetic parameters of enzymatic reactions were obtained by linear regression using the Hanes–Woolf equations.
as §3

BuChE, sequence (P06276 29-602): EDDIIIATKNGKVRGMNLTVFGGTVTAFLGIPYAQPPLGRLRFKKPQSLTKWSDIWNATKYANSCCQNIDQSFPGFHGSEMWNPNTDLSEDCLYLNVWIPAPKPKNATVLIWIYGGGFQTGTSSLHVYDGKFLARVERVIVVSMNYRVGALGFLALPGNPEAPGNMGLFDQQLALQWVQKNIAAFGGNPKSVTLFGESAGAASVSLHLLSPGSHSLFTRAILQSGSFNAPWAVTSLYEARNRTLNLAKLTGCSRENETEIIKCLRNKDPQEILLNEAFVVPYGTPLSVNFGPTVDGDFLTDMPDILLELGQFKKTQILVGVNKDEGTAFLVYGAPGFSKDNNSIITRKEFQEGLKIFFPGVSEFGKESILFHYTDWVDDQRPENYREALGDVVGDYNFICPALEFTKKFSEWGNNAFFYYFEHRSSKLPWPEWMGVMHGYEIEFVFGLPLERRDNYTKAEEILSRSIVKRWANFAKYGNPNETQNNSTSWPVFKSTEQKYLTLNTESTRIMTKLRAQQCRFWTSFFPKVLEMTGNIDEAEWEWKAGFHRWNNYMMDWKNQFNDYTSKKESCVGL
T1 sequence (P22303 32-617 isoform P22303-2 limits assumed): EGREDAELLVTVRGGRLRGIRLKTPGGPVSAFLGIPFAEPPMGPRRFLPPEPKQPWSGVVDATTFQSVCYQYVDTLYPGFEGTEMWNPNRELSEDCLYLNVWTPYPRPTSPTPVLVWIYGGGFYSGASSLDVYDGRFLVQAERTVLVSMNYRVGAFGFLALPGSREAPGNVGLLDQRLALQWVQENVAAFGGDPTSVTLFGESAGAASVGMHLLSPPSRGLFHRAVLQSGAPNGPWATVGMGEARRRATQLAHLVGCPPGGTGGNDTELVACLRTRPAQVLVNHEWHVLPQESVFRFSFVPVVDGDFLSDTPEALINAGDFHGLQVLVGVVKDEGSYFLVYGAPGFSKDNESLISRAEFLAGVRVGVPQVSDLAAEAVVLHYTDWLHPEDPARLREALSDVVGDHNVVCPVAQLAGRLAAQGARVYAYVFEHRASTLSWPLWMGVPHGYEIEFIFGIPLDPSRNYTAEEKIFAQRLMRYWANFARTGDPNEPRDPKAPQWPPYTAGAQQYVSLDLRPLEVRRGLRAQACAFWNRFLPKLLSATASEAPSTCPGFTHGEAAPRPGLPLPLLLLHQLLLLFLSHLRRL
T2 sequence (P06276 29-602): as the sequence (P06276 29-602) above
T3 sequence (P05067 672-713 limits assumed): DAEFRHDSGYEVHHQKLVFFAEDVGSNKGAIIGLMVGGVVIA

Compound: CN(C)CCCN1c2ccccc2Sc2ccccc21 [Promazine, promazine]
- AChE reaction velocity ([1]; 100 µg/L): 0.245 ± 0.015 A/min
- AChE reaction velocity ([1]; 200 µg/L): 0.232 ± 0.016 A/min
- IC50 ([1]; theoretical values calculated on the basis of extrapolated plots): > 2000 nM
- methemoglobin formation with AAPH (human erythrocytes [2]; 10 μg/L): 60.7%
- methemoglobin formation with AAPH (human erythrocytes [2]; 50 μg/L): 54.5%
- astrocyte viability compared with the control (pure AAPH) (astrocytes): statistically significant increase
- IC50 ([3]; IC50 BuChE): 186 nM
- IC50 ([3]; read-out: IC50 BuChE): 190 ± 20 nM
- hemolysis at 5 h, 250 μg/L (human erythrocytes [4]; 5 h of incubation): > 45%
- hemolysis at 24 h, 250 μg/L (human erythrocytes [4]; 24 h of incubation): > 59%
- effect on Aβ aggregation after a longer incubation time [5]: substantially inhibit
- formation of methemoglobin (human erythrocytes [6]; 5 h of incubation): 39%
- formation of methemoglobin (human erythrocytes [6]; 24 h of incubation): 64%
- Vmax(i) BuChE (BuChE; compound at its IC50): 0.144 ± 0.036 A/min
- Vmax(i) BuChE (BuChE; compound at ½ IC50): 0.192 ± 0.059 A/min
- type of inhibition of BuChE (BuChE; from Km(i), Vmax(i) vs Km, Vmax, mixed inhibition): same type of inhibition
